Positions count from the first letter of the chain named. Values joined by “and” are separate entries in the source; they are usually repeats but may differ in a detail not shown here. Equal values may be shown once.
Columns and labels:
Conditions in all cases: ± SE
[1] = molecular target: T1, Q150A mutant mouse 5-HT3ASR (Mus musculus, UniProt P23979, Q151A); test: [^3H]granisetron saturation binding, Q150A receptor
T1 sequence (P23979 24-483 isoform P23979-2 Q151A): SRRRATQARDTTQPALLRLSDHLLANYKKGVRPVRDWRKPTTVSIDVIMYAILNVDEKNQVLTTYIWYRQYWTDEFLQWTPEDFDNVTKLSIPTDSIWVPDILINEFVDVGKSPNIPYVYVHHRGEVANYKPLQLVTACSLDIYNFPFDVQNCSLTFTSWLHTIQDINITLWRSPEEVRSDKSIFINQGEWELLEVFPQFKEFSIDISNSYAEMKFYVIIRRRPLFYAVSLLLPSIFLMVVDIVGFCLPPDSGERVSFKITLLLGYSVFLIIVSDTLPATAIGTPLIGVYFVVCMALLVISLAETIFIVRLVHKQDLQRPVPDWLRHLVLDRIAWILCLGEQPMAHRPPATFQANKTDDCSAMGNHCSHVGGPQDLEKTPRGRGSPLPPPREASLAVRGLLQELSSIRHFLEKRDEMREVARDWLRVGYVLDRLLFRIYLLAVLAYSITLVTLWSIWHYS

[2] = molecular target: T2, Y140A mutant mouse 5-HT3ASR (Mus musculus, UniProt P23979, Y141A); test: [^3H]granisetron saturation binding, Y140A receptor
T2 sequence (P23979 24-483 isoform P23979-2 Y141A): T1 sequence (P23979 24-483 isoform P23979-2 Q151A) with Y118A, A128Q

[3] = molecular target: T3, K153A mutant mouse 5-HT3ASR (Mus musculus, UniProt P23979, K154A); test: [^3H]granisetron saturation binding, K153A receptor
T3 sequence (P23979 24-483 isoform P23979-2 K154A): T1 sequence (P23979 24-483 isoform P23979-2 Q151A) with A128Q, K131A

[4] = molecular target: T4, H145A mutant mouse 5-HT3ASR (Mus musculus, UniProt P23979, H146A); test: [^3H]granisetron saturation binding, H145A receptor
T4 sequence (P23979 24-483 isoform P23979-2 H146A): T1 sequence (P23979 24-483 isoform P23979-2 Q151A) with H123A, A128Q

CN1C2CCCC1CC(NC(=O)c1nn(C)c3ccccc13)C2 (stereo not drawn) [[^3H]granisetron] was tested, and the Bmax [1] was 0.56 ± .09 pmol/mg protein, the Bmax [2] was 0.44 ± .08 pmol/mg protein and the Bmax [3] was 0.30 pmol/mg protein and 0.30 ± .08 pmol/mg protein. The “Hill coefficient (n)” value [3] was 1.51 ± 0.17, the Bmax [4] was 0.81 ± .07 pmol/mg protein and the “Hill coefficient (n)” value [4] was 1.38 ± 0.17.
